Measurements: ChEMBL document CHEMBL5724914, “Linking interpersonal differences in gut microbiota composition and drug biotransformation activity” (2024)

Tests used:
[1] = (§1) The drug is tested on WLS-350 corresponding to human gut metagenome with ENA study accession number: PRJEB37062 and ENA sample accession number: ERS12561789 for biotransformation under anaerobic condition. The drug concentrations were measured over 9 timepoints collected between 0 and 24 hours of incubation by liquid-chromatography-coupled mass spectrometry (LC–MS); details: 2 µM
[2] = as §1, with “Z-029” for “WLS-350”, “rat” for “human”, “ERS12561828” for “ERS12561789”; details: 2 µM
[3] = as §1, with “WLS-240” for “WLS-350”, “ERS12561773” for “ERS12561789”; details: 2 µM
[4] = human gut metagenome, 24 h, 2 µM
[5] = human gut metagenome, 24 h, 2 µM; remark: listed apart in the source
[6] = as §1, with “Z-010” for “WLS-350”, “to” for “to human gut”, “ERS12561810” for “ERS12561789”; details: 2 µM
[7] = as §1, with “Z-013” for “WLS-350”, “rabbit” for “human”, “ERS12561813” for “ERS12561789”; details: 2 µM
[8] = human gut metagenome, 24 h, 2 µM; remark: listed apart in the source
[9] = as §1, with “WLS-098” for “WLS-350”, “ERS12561754” for “ERS12561789”; details: 2 µM
[10] = human gut metagenome, 24 h, 2 µM; remark: listed apart in the source
[11] = as §1, with “Z-018” for “WLS-350”, “pig” for “human”, “ERS12561817” for “ERS12561789”; details: 2 µM
[12] = human gut metagenome, 24 h, 2 µM; remark: listed apart in the source
[13] = human gut metagenome, 24 h, 2 µM; remark: listed apart in the source
[14] = as §1, with “Z-028” for “WLS-350”, “mouse” for “human”, “ERS12561827” for “ERS12561789”; details: 2 µM
[15] = as §1, with “WLS-082” for “WLS-350”, “ERS12561751” for “ERS12561789”; details: 2 µM
[16] = as §1, with “Z-002” for “WLS-350”, “rabbit” for “human”, “ERS12561802” for “ERS12561789”; details: 2 µM
[17] = as §1, with “WLS-038” for “WLS-350”, “ERS12561745” for “ERS12561789”; details: 2 µM
[18] = as §1, with “Z-012” for “WLS-350”, “to” for “to human gut”, “ERS12561812” for “ERS12561789”; details: 2 µM
[19] = human gut metagenome, 24 h, 2 µM; remark: listed apart in the source
[20] = as §1, with “WLS-370” for “WLS-350”, “ERS12561793” for “ERS12561789”; details: 2 µM
Note: call rule not given here.

Row | Compound | Bacterial Biotransformation [1] | Bacterial Biotransformation [2] | Bacterial Biotransformation [3] | Bacterial Biotransformation [4] | Bacterial Biotransformation [5] | Bacterial Biotransformation [6] | Bacterial Biotransformation [7] | Bacterial Biotransformation [8] | Bacterial Biotransformation [9] | Bacterial Biotransformation [10] | Bacterial Biotransformation [11] | Bacterial Biotransformation [12] | Bacterial Biotransformation [13] | Bacterial Biotransformation [14] | Bacterial Biotransformation [15] | Bacterial Biotransformation [16] | Bacterial Biotransformation [17] | Bacterial Biotransformation [18] | Bacterial Biotransformation [19] | Bacterial Biotransformation [20]
1 | CCOC(=O)[C@H](CCc1ccccc1)N[C@@H](C)C(=O)N1[C@H](C(=O)O)C[C@@H]2CCC[C@@H]21 | Compound metabolized | Compound NOT metabolized | Compound metabolized | Compound metabolized | Compound metabolized | Compound metabolized | Compound NOT metabolized | Compound metabolized | Compound metabolized | Compound NOT metabolized | Compound metabolized | Compound metabolized | Compound metabolized | Compound NOT metabolized | Compound metabolized | Compound metabolized | Compound metabolized | Compound metabolized | Compound metabolized | Compound metabolized
2 | CCN(CC)CCNC(C(=O)OCCC(C)C)c1ccccc1.Cl.Cl (stereo not given) | Compound metabolized | Compound NOT metabolized | Compound metabolized | Compound metabolized | Compound metabolized | Compound metabolized | Compound NOT metabolized | Compound metabolized | Compound metabolized | Compound NOT metabolized | Compound metabolized | Compound metabolized | Compound NOT metabolized | Compound NOT metabolized | Compound metabolized | Compound metabolized | Compound NOT metabolized | Compound NOT metabolized | Compound metabolized | Compound metabolized
3 | CCCC(=O)Nc1ccc(OCC(O)CNC(C)C)c(C(C)=O)c1 (stereo not given) [ACEBUTOLOL] | Compound metabolized | Compound NOT metabolized | Compound metabolized | Compound metabolized | Compound metabolized | Compound NOT metabolized | Compound NOT metabolized | Compound metabolized | Compound metabolized | Compound metabolized | Compound NOT metabolized | Compound metabolized | Compound metabolized | Compound NOT metabolized | Compound NOT metabolized | Compound metabolized | Compound NOT metabolized | Compound NOT metabolized | Compound NOT metabolized | Compound NOT metabolized
4 | C=CCc1ccccc1OCC(O)CNC(C)C (stereo not given) [ALPRENOLOL] | Compound NOT metabolized | Compound NOT metabolized | Compound metabolized | Compound metabolized | Compound metabolized | Compound NOT metabolized | Compound NOT metabolized | Compound NOT metabolized | Compound metabolized | Compound NOT metabolized | Compound NOT metabolized | Compound metabolized | Compound NOT metabolized | Compound NOT metabolized | Compound NOT metabolized | Compound metabolized | Compound NOT metabolized | Compound NOT metabolized | Compound NOT metabolized | Compound NOT metabolized
5 | CC(C)c1c(C(=O)Nc2ccccc2)c(-c2ccccc2)c(-c2ccc(F)cc2)n1CC[C@@H](O)C[C@@H](O)CC(=O)O [ATORVASTATIN] | Compound metabolized | Compound NOT metabolized | Compound metabolized | Compound metabolized | Compound metabolized | Compound metabolized | Compound NOT metabolized | Compound metabolized | Compound metabolized | Compound metabolized | Compound NOT metabolized | Compound metabolized | Compound metabolized | Compound NOT metabolized | Compound metabolized | Compound metabolized | Compound metabolized | Compound NOT metabolized | Compound NOT metabolized | Compound metabolized
6 | CCOC(=O)[C@H](CCc1ccccc1)N[C@H]1CCc2ccccc2N(CC(=O)O)C1=O [BENAZEPRIL] | Compound metabolized | Compound metabolized | Compound metabolized | Compound metabolized | Compound metabolized | Compound metabolized | Compound NOT metabolized | Compound metabolized | Compound metabolized | Compound NOT metabolized | Compound metabolized | Compound metabolized | Compound metabolized | Compound metabolized | Compound metabolized | Compound metabolized | Compound metabolized | Compound metabolized | Compound metabolized | Compound metabolized
7 | NS(=O)(=O)c1cc2c(cc1Cl)N=C(CSCc1ccccc1)NS2(=O)=O [BENZTHIAZIDE] | Compound NOT metabolized | Compound NOT metabolized | Compound NOT metabolized | Compound NOT metabolized | Compound NOT metabolized | Compound NOT metabolized | Compound NOT metabolized | Compound NOT metabolized | Compound NOT metabolized | Compound NOT metabolized | Compound NOT metabolized | Compound NOT metabolized | Compound NOT metabolized | Compound NOT metabolized | Compound NOT metabolized | Compound metabolized | Compound NOT metabolized | Compound NOT metabolized | Compound NOT metabolized | Compound NOT metabolized
